Measurements published in the NIST ThermoML archive (doi:10.1016/j.jct.2016.04.019).

Test: mn = molality of the nth substance listed, in mol/kg
Conditions: 298.15 K, 101.3 kPa, Liquid, Frequency=0.0002 MHz, Alternating current cell with electrodes

C[C@H](CCC(=O)[O-])[C@H]1CC[C@H]2[C@@H]3[C@H](O)C[C@@H]4C[C@H](O)CC[C@]4(C)[C@H]3C[C@H](O)[C@]12C.[Na+] [sodium cholate] + O
Conditions	electrical conductivity [S/m]
m1 = 0.00042	0.0033
m1 = 0.00083	0.0062
m1 = 0.00124	0.009
m1 = 0.00164	0.0118
m1 = 0.00205	0.0144
m1 = 0.00245	0.0171
m1 = 0.00284	0.0197
m1 = 0.00324	0.0225
m1 = 0.00363	0.025
m1 = 0.00401	0.0275
m1 = 0.0044	0.0299
m1 = 0.00478	0.0322
m1 = 0.00516	0.0345
m1 = 0.00553	0.0366
m1 = 0.0059	0.0388
m1 = 0.00627	0.0409
m1 = 0.00664	0.043
m1 = 0.007	0.0451
m1 = 0.00736	0.0473
m1 = 0.00772	0.0493
m1 = 0.00807	0.0512
m1 = 0.00842	0.0532
m1 = 0.00877	0.0553
m1 = 0.00912	0.0573
m1 = 0.00946	0.0591
m1 = 0.00981	0.061
m1 = 0.01015	0.063
m1 = 0.01048	0.0649
m1 = 0.01082	0.0668
m1 = 0.01115	0.0687
m1 = 0.01148	0.0706
m1 = 0.0118	0.0724
m1 = 0.01213	0.0743
m1 = 0.01245	0.0762
m1 = 0.01277	0.078
m1 = 0.01309	0.0798
m1 = 0.0134	0.0816
m1 = 0.01371	0.0834
m1 = 0.01402	0.0853
m1 = 0.01433	0.0871
m1 = 0.01464	0.0889
m1 = 0.01494	0.0906
m1 = 0.01524	0.0924
m1 = 0.01554	0.0942
m1 = 0.01584	0.0959
m1 = 0.01614	0.0976
m1 = 0.01643	0.0993
m1 = 0.01672	0.101
m1 = 0.01701	0.103
m1 = 0.0173	0.104

CCCCCCCCCCCCOS(=O)(=O)[O-].[Na+] [sodium dodecyl sulfate] + O
Conditions	electrical conductivity [S/m]
m1 = 0.001	0.0071
m1 = 0.00201	0.0137
m1 = 0.00301	0.0209
m1 = 0.00401	0.0275
m1 = 0.00501	0.034
m1 = 0.00602	0.041
